Test systems include CAKI-1; 786-0; HCT-116; SK-MEL-5; OVCAR-4; TK-10; SK-MEL-28; SK-OV-3; UACC-257; MOLT-4; ACHN; OVCAR-3; SK-MEL-2; EKVX; A498; NCI-H226.
What all share (assay): NCI tumour cell line growth inhibition, 48 h

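1) Cells in 96-well plates. 2) Compound, 48 h, 5 concentrations. 3) Linear interpolation between surrounding doses. 4) Unreached endpoint = highest concentration. At the GI50, growth is halved.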 Active and inactive are the calls of the source. Rule as the data show it: active = GI50 up to about 1.1 µM and inactive = higher.

With `COc1cc(/C=C2/C(=O)N(C(=O)c3ccc(Cl)cc3)N=C2C)cc(OC)c1OC`, the GI50 in the assay on CAKI-1, in the assay on 786-0, with HCT-116, with SK-MEL-5, in the assay on OVCAR-4 and with TK-10 was > 100 µM (inactive) throughout. Moreover, the GI50 in the assay with SK-MEL-28, with SK-OV-3, with UACC-257, with MOLT-4, in the assay with ACHN and in the assay on OVCAR-3 was > 100 µM (inactive) each time. Further, the GI50 in the assay on SK-MEL-2, in the assay on EKVX and with A498 was > 100 µM (inactive) throughout.
For the compound `N#C/C(=C/c1ccc[nH]1)P(=O)(O)O`, the GI50 in the assay with CAKI-1, in the assay on 786-0, with NCI-H226, with HCT-116, in the assay with SK-MEL-5 and in the assay on OVCAR-4 was > 100 µM (inactive) in each case. The GI50 in the assay on TK-10, in the assay with SK-MEL-28, with SK-OV-3, with UACC-257, in the assay on MOLT-4 and in the assay with ACHN was > 100 µM (inactive) throughout. Besides, the GI50 in the assay on OVCAR-3, with SK-MEL-2 and with EKVX was > 100 µM (inactive) in each case.
With `COC(=O)CCC(NC(=S)N/N=C(\C)c1cccs1)C(=O)OC` (stereo unspecified), the GI50 in the assay with 786-0, in the assay on NCI-H226, with HCT-116, with SK-MEL-5, in the assay with OVCAR-4 and in the assay on TK-10 was > 100 µM (inactive) each time. Moreover, the GI50 in the assay with SK-MEL-28, in the assay with SK-OV-3, in the assay with UACC-257, in the assay with ACHN, in the assay with OVCAR-3 and in the assay with SK-MEL-2 was > 100 µM (inactive) throughout. For the same compound, the GI50 in the assay with EKVX and in the assay with A498 was > 100 µM (inactive) in each case.
`Cc1nc2ccccc2c(=O)n1/N=C(\N=N\c1ccccc1Cl)c1ccccc1Cl`: the GI50 was 29.4 µM (inactive) in the assay on CAKI-1; 48 µM (inactive) with 786-0; 36.4 µM (inactive) in the assay with HCT-116; 63.1 µM (inactive) in the assay on SK-MEL-5; 48 µM (inactive) in the assay with TK-10; > 100 µM (inactive) in the assay with SK-MEL-28. For the same compound, the GI50 in the assay on SK-OV-3 was 22.9 µM (inactive); in the assay with MOLT-4 it was 22.1 µM (inactive); in the assay with ACHN, 50.5 µM (inactive); in the assay with EKVX, 28.8 µM (inactive); in the assay with A498 it was 43 µM (inactive).
As for `CCCN1CN(C(C(=O)N[C@@H]2C(=O)N3C(C(=O)O)=C(C)CSC23)c2ccccc2)CSC1=S` (stereo partly specified), the GI50 in the assay on 786-0, in the assay on HCT-116, in the assay on SK-MEL-5, with OVCAR-4, in the assay on TK-10 and in the assay with SK-MEL-28 was > 100 µM (inactive) throughout. Further, the GI50 is > 100 µM (inactive) in the assay with SK-OV-3; > 100 µM (inactive) in the assay with UACC-257; > 100 µM (inactive) with MOLT-4; > 100 µM (inactive) in the assay with ACHN; 68.1 µM (inactive) in the assay with OVCAR-3; > 100 µM (inactive) in the assay with SK-MEL-2. Further, the GI50 in the assay on EKVX and in the assay with A498 was > 100 µM (inactive) in each case.
Regarding `CCCCC(C)/C=C/C(O)=C1\C(=O)O/C(=C\C(=O)O)C1=O` (stereo unspecified), the GI50 in the assay with 786-0, in the assay on NCI-H226, with HCT-116, in the assay with SK-MEL-5, in the assay on OVCAR-4 and with TK-10 was > 100 µM (inactive) each time. The GI50 in the assay on SK-MEL-28, in the assay on SK-OV-3, with UACC-257, in the assay with MOLT-4, with ACHN and in the assay with OVCAR-3 was > 100 µM (inactive) each time. Besides, the GI50 with SK-MEL-2, in the assay on EKVX and with A498 was > 100 µM (inactive) each time.
For `CC(C)(O)[C@H](CCO)O[Si](c1ccccc1)(c1ccccc1)C(C)(C)C`, the GI50 is 4.9 µM (inactive) in the assay on HCT-116; 14.2 µM (inactive) in the assay with SK-MEL-5; 13.2 µM (inactive) with TK-10; 15.2 µM (inactive) in the assay with SK-MEL-28; 12.1 µM (inactive) with SK-OV-3; 15.5 µM (inactive) with UACC-257. The GI50 in the assay with MOLT-4 was 4.25 µM (inactive); with ACHN, 5.94 µM (inactive); in the assay on OVCAR-3, 11.1 µM (inactive); in the assay on SK-MEL-2, 15.1 µM (inactive); in the assay on EKVX, 14.2 µM (inactive); in the assay on A498 it was 16.5 µM (inactive).
Consider `NNc1nnc(-c2ccccc2)nc1Cc1ccccc1`, for which the GI50 in the assay on CAKI-1 was 13.8 µM (inactive); in the assay with NCI-H226 it was 2.37 µM (inactive); in the assay on HCT-116, 7.18 µM (inactive); in the assay with SK-MEL-5, 12.3 µM (inactive); in the assay on OVCAR-4, 9.14 µM (inactive); with TK-10, 9.35 µM (inactive). Also, the GI50 in the assay with SK-MEL-28 is 7.71 µM (inactive); in the assay with SK-OV-3, 14.3 µM (inactive); with MOLT-4, 3.19 µM (inactive); in the assay with ACHN it was 4.04 µM (inactive); in the assay on OVCAR-3, 3.61 µM (inactive); in the assay with SK-MEL-2, 6.35 µM (inactive). The GI50 with EKVX was 22.3 µM (inactive).
For the compound `COc1ccc(/C(Cl)=C(\C=O)c2ccccc2)cc1OC`, the GI50 with CAKI-1 was 24.4 µM (inactive); in the assay on NCI-H226 it was 21 µM (inactive); in the assay with HCT-116 it was 23.4 µM (inactive); in the assay on SK-MEL-5, 25.4 µM (inactive); with OVCAR-4, 25 µM (inactive); in the assay on TK-10, 21.4 µM (inactive). For the same compound, the GI50 was 70.3 µM (inactive) with SK-OV-3; 15.2 µM (inactive) in the assay on UACC-257; 6.85 µM (inactive) in the assay with MOLT-4; 23.3 µM (inactive) in the assay with ACHN; 10.3 µM (inactive) in the assay on OVCAR-3; 19.4 µM (inactive) in the assay on SK-MEL-2. Also, the GI50 in the assay with EKVX was 3.6 µM (inactive).
Turning to `COc1ccc2[nH]c3c(C)c4cc[n+](COC(=O)c5ccccc5)cc4c(C)c3c2c1`, the GI50 in the assay with CAKI-1 was 0.569 µM (active); with 786-0 it was 0.138 µM (active); in the assay with HCT-116 it was 0.0378 µM (active); with OVCAR-4 it was 0.168 µM (active); with TK-10, 0.55 µM (active); in the assay with SK-MEL-28, 1.31 µM (inactive). Further, the GI50 was 1.22 µM (inactive) in the assay on SK-OV-3; 1.19 µM (inactive) in the assay with UACC-257; 0.0379 µM (active) with MOLT-4; 0.101 µM (active) with ACHN; 1.48 µM (inactive) with OVCAR-3; 1.11 µM (active) with A498.
For `O=c1c2ccccc2nc(-c2ccccc2Cl)n1NCC1(O)OCC(O)C(O)C1O` (stereo unspecified), the GI50 in the assay with CAKI-1, with 786-0, with HCT-116, with SK-MEL-5, in the assay on OVCAR-4 and in the assay with TK-10 was > 100 µM (inactive) each time. The GI50 in the assay with SK-MEL-28, with SK-OV-3, in the assay on UACC-257, with MOLT-4, in the assay on ACHN and with OVCAR-3 was > 100 µM (inactive) in each case. Besides, the GI50 in the assay on SK-MEL-2, with EKVX and in the assay with A498 was > 100 µM (inactive) each time.
As to `Cc1cc2oc(-c3ccccc3)c(C)c(=O)c2c2c1OC(C)(C)S2`, the GI50 is > 100 µM (inactive) in the assay with 786-0; > 100 µM (inactive) with NCI-H226; 71 µM (inactive) in the assay with HCT-116; 68.7 µM (inactive) in the assay on SK-MEL-5; > 100 µM (inactive) in the assay on OVCAR-4; > 100 µM (inactive) in the assay with TK-10. The GI50 with SK-MEL-28 was 60.7 µM (inactive); in the assay with SK-OV-3 it was > 100 µM (inactive); in the assay on UACC-257 it was 63.7 µM (inactive); with MOLT-4, 60.3 µM (inactive); in the assay on ACHN it was > 100 µM (inactive); in the assay on OVCAR-3 it was > 100 µM (inactive). For the same compound, the GI50 in the assay on SK-MEL-2 and with EKVX was > 100 µM (inactive) throughout.
Consider `COc1ccc(Nc2nc(C#N)c(N)s2)cc1`, for which the GI50 in the assay on CAKI-1 is 24.6 µM (inactive); with 786-0, 64 µM (inactive); in the assay with NCI-H226, > 100 µM (inactive); in the assay with HCT-116 it was 33 µM (inactive); in the assay on OVCAR-4, 83.2 µM (inactive); with TK-10, 38.2 µM (inactive). Moreover, the GI50 in the assay on SK-MEL-28 is > 100 µM (inactive); in the assay on SK-OV-3, 34 µM (inactive); in the assay on UACC-257 it was 17.1 µM (inactive); in the assay with MOLT-4 it was > 10 µM (inactive); in the assay with ACHN, 15.7 µM (inactive); in the assay on OVCAR-3 it was > 100 µM (inactive). Also, the GI50 in the assay with SK-MEL-2 was 33.4 µM (inactive).
Turning to `OC1CCC[C@@H]1Sc1ccccc1` (stereo partly specified), the GI50 in the assay on CAKI-1, in the assay with 786-0, with HCT-116, with SK-MEL-5, in the assay on OVCAR-4 and with TK-10 was > 100 µM (inactive) in each case. Besides, the GI50 in the assay with SK-MEL-28, with SK-OV-3, in the assay on UACC-257, with MOLT-4, in the assay with ACHN and in the assay with OVCAR-3 was > 100 µM (inactive) throughout. The GI50 in the assay on SK-MEL-2, in the assay on EKVX and in the assay on A498 was > 100 µM (inactive) each time.

The values above are taken from ChEMBL document CHEMBL1201862, “PubChem BioAssay data set” (2004).
